Measured values: the CATMoS acute toxicity set (Mansouri et al. 2021)
*1 amine or outer side, *2 acyl side, *3 side chain or, on linkers, in order; H or OH if unused. Where a SMILES comes first, the peptide text is derived from it. Bridges are numbered along the chain shown (N, C = ends). [ ]: non-standard residue; d: D form. The star is where a group is joined. X5 = O=C(NC(=O)[*:2])C(N[*:1])c1cc(Cl)c(O)c(Cl)c1; X3 = NCCCCN(C(=O)C(N[*:1])c1ccc(O)cc1)C(=O)[*:2]; X4 = NC1=NC(CC(N[*:1])C(=O)[*:2])CN1; Hpg = N[CH](C(=O)O)c1ccc(O)cc1; X2 = CCC(C)CCCC/C=C/C=C/C(=O)*; Cit = NC(=O)NCCC[CH](N)C(=O)O

Assay: GHS categories as the set defines them, by LD50: 1 up to 5, 2 up to 50, 3 up to 300, 4 up to 2000, 5 above 2000 mg/kg
Conditions: rat; in vivo; po

SMILES | GHS category
CCCc1c(Cc2ccc(-c3ccccc3-c3nn[nH]n3)cc2)cnc2ncnn12 | 4
CC1=CC(=O)N(Cc2cccc(CN3C(=O)C=C(C)C3=O)c2)C1=O | 5
NCCC(=O)NC(Cc1cnc[nH]1)C(=O)O (centres undefined) | 5
CC(C)(C)c1cc(Cn2c(=O)n(Cc3cc(C(C)(C)C)c(O)c(C(C)(C)C)c3)c(=O)n(Cc3cc(C(C)(C)C)c(O)c(C(C)(C)C)c3)c2=O)cc(C(C)(C)C)c1O | 5
NNC(=O)CCCCC(=O)NN | 5
CC(C)NP1(=S)OCc2cc([N+](=O)[O-])ccc2O1 (centres undefined) | 3
CCCNC(=O)Cc1cnc2cccc(C)n2c1=O | 3
O=C1C=CC(=O)N1c1ccc(Cc2ccc(N3C(=O)C=CC3=O)cc2)cc1 | 5
CCC1(C)Oc2cccc(OC(=O)N(C)C(C)=O)c2O1 (centres undefined) | 3
O=C(O)C1C2C=CC(C2)C1C(=O)O (centres undefined) | 5
CC1=NN(c2ccccc2)C(=O)C1=CN1CCCCC1 | 5
CCCCOC(=O)C(C)C | 5
O=C1NC(=O)C(=c2[nH]c(=C3C(=O)NC(=O)NC3=O)c3ccccc23)C(=O)N1 | 5
CC(C)[C@H](N)C(=O)O | 5
C=CC(C)(CCC=C(C)C)OC(=O)c1ccccc1 (centres undefined) | 5
CCc1ccc(OCC=C(C)CCC2OC2(C)C)cc1 (centres undefined) | 5
CCCCCCCCCCOC1OC(CO)C(O)C(O)C1O (centres undefined) | 5
FC(F)(F)c1cccc(-n2nc(OCCN3CCCCC3)c3cccnc32)c1 | 4
Cc1cccc(C)c1OP(=O)(Oc1cccc(OP(=O)(Oc2c(C)cccc2C)Oc2c(C)cccc2C)c1)Oc1c(C)cccc1C | 5
COc1cc([N+](=O)[O-])c(OC)cc1Cl | 5
CN(c1ccccc1)S(=O)(=O)c1cc(O)c2c(N=Nc3ccc(NC(=O)CCl)cc3S(=O)(=O)O)c(N)ccc2c1 | 5
CCCCCCOCC(OC)OC | 5
CCSP(=O)(SCC)SCC | 3
CCCCCCCCC=CCCCCCCCC(=O)OC(C)C | 5
COc1ccc2c(c1)CC[C@@H]1[C@@H]2CC[C@]2(C)C(=O)CC[C@@H]12 | 5
CCCC(=O)c1ccc2c(c1)OCC(=O)N2C | 5

SMILES | GHS category
NS(=O)(=O)c1ccccc1C(F)(F)F | 4
COc1ncc(F)c2nc(S(=O)(=O)Nc3c(F)cccc3F)nn12 | 5
N#Cc1c[nH]cc1-c1cccc(Cl)c1Cl | 5
CC[n+]1c(C=Cc2ccc(N3CCCC3)cc2)cccc1C=Cc1ccc(N2CCCC2)cc1 | 5
C[C@H]1CO[C@@](Cn2ccnc2)(c2cc3cc(Cl)cc(Cl)c3o2)O1 | 4
CC1CC(C)(C)OC(Cn2cncn2)(c2cc3ccccc3o2)O1 (centres undefined) | 4
CCO[Si](CN1CCOCC1)(OCC)OCC | 5
CCC(=O)NP(=O)(OC)SC (centres undefined) | 4
NC(=O)Oc1ccccc1C(=O)Oc1ccccc1 | 5
CCOC(C)(C)CC | 5
CCCCCCCCCCCCCCCCCCOCCC[N+](C)(C)C | 4
CC[N+](CC)(CC)C(C)OS(=O)(=O)C(F)(F)C(F)(F)C(F)(F)C(F)(F)F (centres undefined) | 5
CC(C)CCC[C@@H](C)[C@H]1CC[C@H]2[C@@H]3CC[C@H]4C[C@H](O)CC[C@]4(C)[C@H]3CC[C@]12C | 4
COC(=O)CC(C)C(=O)c1ccc(NC(=O)c2ccc(OC)cc2)c([N+](=O)[O-])c1 (centres undefined) | 5
CCCCCCCCCCCCCCC(C)c1cc(C)cc(C)c1O (centres undefined) | 5
Cc1ccc(OP(=O)(Oc2ccc(C)cc2C)Oc2ccc(C)cc2C)c(C)c1 | 5
COc1ccc2cccc(CC#N)c2c1 | 5
CCCc1nc2ccnn2c(N)c1Cc1ccc(-c2ccccc2-c2nn[nH]n2)cc1 | 4
CCC(=O)OCCC(C)CCC=C(C)C (centres undefined) | 5
FC(C(F)C(F)(F)C(F)(F)F)C(F)(F)F (centres undefined) | 5
CC(C)(C)CC(C)(C)c1cc(-n2nc3ccccc3n2)c(O)c(C(C)(C)c2ccccc2)c1 | 5
Clc1ccc(I)cc1Cc1ccc(OC2CCOC2)cc1 (centres undefined) | 5
CCOCc1nc(=O)c2nccnc2[nH]1 | 5
CC(C)Oc1ccc2c(=O)c(-c3ccccc3)coc2c1 | 5
O=C(O)CNC(c1ccccc1)c1ccccc1 | 4
CCCCN(c1nc(NCCCN(CCN(CCCNc2nc(N(CCCC)C3CC(C)(C)N(C)C(C)(C)C3)nc(N(CCCC)C3CC(C)(C)N(C)C(C)(C)C3)n2)c2nc(N(CCCC)C3CC(C)(C)N(C)C(C)(C)C3)nc(N(CCCC)C3CC(C)(C)N(C)C(C)(C)C3)n2)c2nc(N(CCCC)C3CC(C)(C)N(C)C(C)(C)C3)nc(N(CCCC)C3CC(C)(C)N(C)C(C)(C)C3)n2)nc(N(CCCC)C2CC(C)(C)N(C)C(C)(C)C2)n1)C1CC(C)(C)N(C)C(C)(C)C1 | 5

SMILES | GHS category
Brc1cnc2[nH]ccc2c1 | 5
CC1(C)CC2(CC(C)(C)c3ccc(O)cc32)c2cc(O)ccc21 | 5
O=C=Nc1ccc(Br)cc1 | 5
CC1(C)COB(OCC(C)(C)COB2OCC(C)(C)CO2)OC1 | 5
CCCCCC1COCCC1OC(C)=O (centres undefined) | 5
CCOc1cc(C)c2[nH]c(=O)sc2c1 | 5
COC(=O)c1cc(F)ccc1N | 5
Cc1cccc2ncc(C(=O)Nc3ccc(F)cc3)c(=O)n12 | 3
CCCCC1(CC)COC(Cn2cncn2)(c2cc3ccccc3o2)OC1 (centres undefined) | 4
OC1(c2ccc(-c3ccccc3)cc2)c2ccccc2C2=NCCN21 (centres undefined) | 4
CC#Cc1cc(C)nc(Nc2ccccc2)n1 | 5
C#CCON=CC1=CCCN(C)C1 | 3
OCC1C(CO)C2(Cl)C(Cl)=C(Cl)C1(Cl)C2(Cl)Cl (centres undefined) | 5
CCC(=O)OC(OC(C(=O)O)[P+](=O)CCCCc1ccccc1)C(C)C (centres undefined) | 5
CCC(C)CCCC/C=C/C=C/C(=O)NC(CC(=O)O)C(=O)NC1C(=O)NC(c2ccc(O)cc2)C(=O)N(CCCCN)C(=O)NC(C(C)O)C(=O)NC(c2ccc(O)cc2)C(=O)NC(c2ccc(O)cc2)C(=O)NC(C(C)O)C(=O)NC(CCCNC(N)=O)C(=O)NC(CC2CNC(N)=N2)C(=O)NC(c2ccc(O)cc2)C(=O)NC(CO)C(=O)NC(c2cc(Cl)c(O)c(Cl)c2)C(=O)NC(=O)NC(CC2CNC(N)=N2)C(=O)NC(C)C(=O)NC(c2ccc(O)cc2)C(=O)OC1C (centres undefined) (X2-DT[X3]T[Hpg][Hpg]T[Cit][X4][Hpg]S[X5][X4]A[Hpg]; ester 2-C; configuration not given here) | 5
CCC=CCC(C)OC(=O)c1ccccc1O (centres undefined) | 5
CN1C(=O)COc2cc(C(=O)C=Cc3ccccc3)ccc21 | 5
Cc1cc(C(=O)NCCc2ccc(S(=O)(=O)NC(=O)NC3CCCCC3)cc2)no1 | 5
Cn1nnnc1SCC1=C(C(=O)O)N2C(=O)[C@@H](NC(=O)[C@H](O)c3ccccc3)[C@H]2SC1 | 5
Cc1cc(OP(Oc2cc(C)c(C(C)(C)C)cc2C(C)(C)C)Oc2cc(C)c(C(C)(C)C)cc2C(C)(C)C)c(C(C)(C)C)cc1C(C)(C)C | 5
Cc1c(C)c([N+](=O)[O-])c(C(C)(C)C)c([N+](=O)[O-])c1C | 5
O=C(Nc1ccc(Cl)cc1)Nc1ccc(Cl)c(Cl)c1 | 5
CC/C=C\CCOC(C)=O | 5
Cc1cc(NC(=O)C2=C(O)c3ccccc3S(=O)(=O)N2C)no1 | 5
CCOC(=O)C(C)(C)Oc1ccc2c(c1)C=C(n1ccnc1)CC2 | 5
CC(=O)OCC(=O)[C@@]1(OC(C)=O)CC[C@H]2[C@@H]3C[C@@H](F)C4=CC(=O)C(Br)=C[C@]4(C)[C@@]3(F)[C@@H](O)C[C@@]21C | 5

SMILES | GHS category
CS(=O)(=O)c1ccc(C(=O)C2C(=O)CCCC2=O)c(Cl)c1 | 5
CO[Si](OC)(C1CCCC1)C1CCCC1 | 5
C[C@H]1O[C@H](OC[C@H]2O[C@H](O)[C@H](OS(=O)(=O)O)[C@@H](OS(=O)(=O)O)[C@@H]2OS(=O)(=O)O)[C@H](OS(=O)(=O)O)[C@@H](OS(=O)(=O)O)[C@@H]1O | 5
CCc1ccc(-n2nnnc2CSCCC(=O)N(CC)CC)cc1 | 4
CCCC(=O)c1ccc2c(c1)OC(C)(C)C(=O)N2 | 5
CCCCCCCCCCCC1CC(O)=C(CCCCCC)C(=O)O1 (centres undefined) | 5
CC(C)(C)C(=O)OCOC(=O)[C@@H]1N2C(=O)[C@@H](NC(=O)[C@H](N)c3ccccc3)[C@H]2SC1(C)C | 5
[C] | 5
O=C1OCCN1N=Cc1c(N2CCCCCC2)nc2ccccn2c1=O | 4
Cc1cc(O)c(C)c2c1OC(C)(CCCC(C)CCCC(C)CCCC(C)C)CC2 (racemic) | 5
CCCc1nc(C)n2[nH]c(=O)nc2c1Cc1ccc(-c2ccccc2-c2nn[nH]n2)cc1 | 4
CCC(=O)O[C@]1(C(=O)CCl)[C@@H](C)C[C@H]2[C@@H]3CCC4=CC(=O)C=C[C@]4(C)[C@@]3(F)[C@@H](O)C[C@@]21C | 5
O=C(O)CNC(=O)c1ccco1 | 5
CN(C)[C@@H]1C(O)=C(C(N)=O)C(=O)[C@@]2(O)C(O)=C3C(=O)c4c(O)ccc(Cl)c4[C@@H](O)[C@H]3C[C@@H]12 | 5
CC(=O)N1CCSC1C(=O)Oc1c(C)ncc(CO)c1CO (centres undefined) | 5
CNC(=O)C(=NNc1ccc(Cl)cc1[N+](=O)[O-])C(C)=O | 5
CC1=CC2[C@@H](C(=O)O1)C2(C)C (some centres undefined) | 5
O=C(O)C[C@H](NCCN[C@@H](CC(=O)O)C(=O)O)C(=O)O | 5
FC(F)(F)N1C(F)(F)C(F)(F)OC(F)(F)C1(F)F | 5
CCCCCCCCCCCCCC | 5
COc1ccc2c(c1)CCN(c1ccccc1)C2c1cccc(Cl)c1 (centres undefined) | 4
Cc1cccc2ncc(C(=O)NC3CC3)c(=O)n12 | 3
CCOC(=O)c1ccccc1OC(N)=O | 5
C=C(C)CCCC(C)CCOC(C)=O (centres undefined) | 5
CCCCC/C=C\CCC(CCCCCCCC(=O)O)C(CCCCCCCC)CCCCCCCCC(=O)O (centres undefined) | 5
CCCCCC=CCC=CCC=CCC=CCCCC(=O)OCC | 5
